Measured values as given in US20260060982A1, “USE OF BTK INHIBITOR AND SINGLE-DOSE DRUG” (HUBEI BIO-PHARMACEUTICAL INDUSTRIAL TECHNOLOGICAL INSTITUTE …, priority 2023, published 2026).

What was measured:
[1] = test system: anti-DNP IgE-induced passive cutaneous anaphylaxis in BALB/c mice; assay: Passive cutaneous anaphylaxis (PCA) model in mice induced with anti-DNP IgE; type: in vivo
From the text: Passive cutaneous anaphylaxis test, also known as PCA reaction, is a local allergic reaction caused by antibodies that bind to the same or different animal tissues. The PCA animal model in the present disclosure was a passive sensitization model in which IgE binds to specific receptors on skin mast cells. When allergens were stimulated, local mast cells released allergic mediators, thereby increasing local vascular permeability. […] The specific steps were as follows:
The PCA model in mice was induced using anti-DNP IgE. Specifically, BALB/c mice were divided into 9 groups, namely, a normal control group (no administration, injection, or feeding of any solvent), a model group (no administration, injection, or feeding of any solvent), a prednisone group (10 mg/kg, administered for 3 consecutive days, QD (once a day), prednisone concentration of 1 mg/mL, and an administration volume of 10 mL/kg), a cetirizine group (20 mg/kg, administered for 3 consecutive days, QD, cetirizine concentration of 2 mg/mL, and an administration volume of 10 mL/kg), a low-dose group and a medium-dose group for the test substance LOU-064 (15 mg/kg and 45 mg/kg, administered for 3 consecutive days, BID (twice a day), LOU-064 concentrations of 1.5 mg/mL and 4.5 mg/mL, and an administration volume of 10 mL/kg), and a low-dose group, a medium-dose group, and a high-dose group for compound (I) (15 mg/kg, 45 mg/kg, and 90 mg/kg, administered for 3 consecutive days, BID, compound (I) concentrations of 1.5 mg/mL, 4.5 mg/mL, and 9 mg/mL, and an administration volume of 10 mL/kg), with 9 mice in each group, administered by gavage for a total of 4 days. On day 3 of the administration, anti-DNP IgE (Sigma-Aldrich) was injected into the left ears of 8 groups of mice (no normal control group), and the same volume of PBS was injected into the right ears of 8 groups and the left and right ears of the normal control group to allow it to bind to mast cells. Then, 24 hours after the fourth day of anti-DNP IgE injection, a mixed solution of antigen (DNP-HAS, Sigma) and pigment Evan's Blue (Sigma) (0.25 mL/mouse, i.v.) was injected into the tail vein (the normal control group was injected with the same volume of the mixed solution of antigen and pigment Evan's Blue). The antigen reacted with the antibody attached to the mast cells, causing a local allergic reaction, increased local vascular permeability, and pigment penetration into the tissue. The reaction intensity was determined by measuring the local pigment content 30 minutes later. The dye was extracted from the left and right ears, and the absorbance of Evan's blue was measured at a specific wavelength. […] The efficacy effects of each test substances in the PCA animal model were evaluated.

[2] = Phase I single-dose clinical trial, pharmacokinetics; type: in vivo; conditions: human, plasma, oral, single administration, 10 mg to 800 mg
From the text: In this example, 96 healthy Chinese aged 18 to 45 were recruited as subjects. The trial included 8 dose groups, each with 12 subjects, who were randomly divided into groups, 10 of whom received compound (I) capsules (i.e., the trial group) and 2 received placebo capsules (containing no compound (I), i.e., the control group or placebo group). […] The dosages involved in this example were all the amount of compound (I). Based on safety and exploration factors, the human MRSD (maximum recommended starting dose) of compound (I) capsule used in the example was set at 10 mg, and the human maximum recommended dose was set at 800 mg. A total of 8 dose groups were set up between the initial dose and the maximum dose (see Table 2 for the dose escalation scheme of the clinical trial): 10 mg, 25 mg, 50 mg, 100 mg, 200 mg, 400 mg, 600 mg, and 800 mg, and single administration safety and tolerability trials were conducted group by group.
The subjects fasted for 10 h before administration and took a single oral administration of compound (I) capsule or placebo capsule at the prescribed dose on the morning of the trial day. Water was prohibited within 2 h after the administration and food was prohibited within 4 h after the administration. Blood sample collection: 3.0 ml of venous blood was collected before administration (within 45 min) and at 10 min, 20 min, 0.5 h, 1 h, 1.5 h, 1.75 h, 2 h, 2.5 h, 3 h, 3.5 h, 4 h, 6 h, 8 h, 12 h, 16 h, 24 h, 36 h, 48 h, and 72 h after administration. Urine sample collection: Urine samples were collected before administration (within 2 h) and at 0-2 h, 2-4 h, 4-8 h, 8-12 h, 12-16 h, 16-24 h, 24-48 h, and 48-72 h after administration. Feces collection: Feces were collected before administration (within 3 days) and at 0-24 h, 24-48 h, and 48-72 h after administration.
The analysis was performed using the Per-protocol set. The time-dependent plasma concentration data of compound (I) capsules were processed using WinNonlin version 6.4. The main pharmacokinetic parameters of each subject were calculated using a non-compartmental model, and the linear relationship between dose and Cmax and AUC0-t was analyzed using a power function model.

[3] = test system: IgM-induced calcium signaling in RAMOS cells; assay: Antagonism of IgM-induced calcium signaling in RAMOS cells (FLIPR); type: cell-based; conditions: Homo sapiens, Fluo-4D dye
Procedure: The specific test steps were as follows:
A. Ramos cells (ECACC) were seeded in a 384 experimental plate using cell culture medium (RPMI 1640 medium supplemented with 10% fetal bovine serum) at a density of 5×10^6 cells/mL, 20 μL per well.
C. The cell plate and the compound plate were placed into FLIPR. 10 μL was transferred from the compound plate by the FLIPR instrument and added to the cell plate. The cell plate was removed and incubated in a 37° C. incubator for 1 h.
D. One hour later, 40 μL of Fluo-4D dye (Life Technologies, formulated as 0.5× with 40 mL of HBSS and HEPES buffer) was added to the cell plate and incubated at 37° C. for 50 min.
E. 10 μL of IgM at 8×EC80 concentration was added, and the plate was read using FLIPR.
F. The IC50 results of the compounds were analyzed using EXCEL and Prism statistical software.

Cmax ([2]; read-out: Cmax, range over dose groups): 46.1 to 5060 ng/mL | MRT ([2]; read-out: MRT, range over dose groups): 1.53 to 4.25 h | half-life ([2]; read-out: T1/2, range over dose groups): 0.847 to 8.67 h | Tmax ([2]; read-out: Tmax, range over dose groups): 1.03 to 2 h | IC50 [3]: 55 ± 3.34 nM
SMILES: C=CC(=O)N1CCC[C@@H](n2nc(-c3ccc(Oc4ccccn4)cc3)c3c(N)n[nH]c(=O)c32)C1 [compound (I), (R)-1-(1-acryloylpiperidin-3-yl)-4-amino-3-(4-(pyridin-2-yloxy)phenyl)-1H-pyrazolo[3,4-d]pyridazin-7(6H)-one]
Concentration of Evan's Blue, Left ear, Average value ([1]; 15 mg/kg BID by gavage): 25.68 µg/mL | Concentration of Evan's Blue, Left ear, Average value ([1]; 45 mg/kg BID by gavage): 18.21 µg/mL | Concentration of Evan's Blue, Left ear, Average value ([1]; 90 mg/kg BID by gavage): 22.00 µg/mL | Evan's Blue content in the modeling ear compared with the model group ([1]; three dose groups (15, 45, 90 mg/kg BID)): significantly reduced
